In PubChem BioAssay AID515 (SGCOxCompounds, 2006) one finds Tm shift data, which are given here for 31 compounds.

Mitogen-activated protein kinase kinase kinase 5 (Homo sapiens), sequence (Q99683 whole entry, looked up): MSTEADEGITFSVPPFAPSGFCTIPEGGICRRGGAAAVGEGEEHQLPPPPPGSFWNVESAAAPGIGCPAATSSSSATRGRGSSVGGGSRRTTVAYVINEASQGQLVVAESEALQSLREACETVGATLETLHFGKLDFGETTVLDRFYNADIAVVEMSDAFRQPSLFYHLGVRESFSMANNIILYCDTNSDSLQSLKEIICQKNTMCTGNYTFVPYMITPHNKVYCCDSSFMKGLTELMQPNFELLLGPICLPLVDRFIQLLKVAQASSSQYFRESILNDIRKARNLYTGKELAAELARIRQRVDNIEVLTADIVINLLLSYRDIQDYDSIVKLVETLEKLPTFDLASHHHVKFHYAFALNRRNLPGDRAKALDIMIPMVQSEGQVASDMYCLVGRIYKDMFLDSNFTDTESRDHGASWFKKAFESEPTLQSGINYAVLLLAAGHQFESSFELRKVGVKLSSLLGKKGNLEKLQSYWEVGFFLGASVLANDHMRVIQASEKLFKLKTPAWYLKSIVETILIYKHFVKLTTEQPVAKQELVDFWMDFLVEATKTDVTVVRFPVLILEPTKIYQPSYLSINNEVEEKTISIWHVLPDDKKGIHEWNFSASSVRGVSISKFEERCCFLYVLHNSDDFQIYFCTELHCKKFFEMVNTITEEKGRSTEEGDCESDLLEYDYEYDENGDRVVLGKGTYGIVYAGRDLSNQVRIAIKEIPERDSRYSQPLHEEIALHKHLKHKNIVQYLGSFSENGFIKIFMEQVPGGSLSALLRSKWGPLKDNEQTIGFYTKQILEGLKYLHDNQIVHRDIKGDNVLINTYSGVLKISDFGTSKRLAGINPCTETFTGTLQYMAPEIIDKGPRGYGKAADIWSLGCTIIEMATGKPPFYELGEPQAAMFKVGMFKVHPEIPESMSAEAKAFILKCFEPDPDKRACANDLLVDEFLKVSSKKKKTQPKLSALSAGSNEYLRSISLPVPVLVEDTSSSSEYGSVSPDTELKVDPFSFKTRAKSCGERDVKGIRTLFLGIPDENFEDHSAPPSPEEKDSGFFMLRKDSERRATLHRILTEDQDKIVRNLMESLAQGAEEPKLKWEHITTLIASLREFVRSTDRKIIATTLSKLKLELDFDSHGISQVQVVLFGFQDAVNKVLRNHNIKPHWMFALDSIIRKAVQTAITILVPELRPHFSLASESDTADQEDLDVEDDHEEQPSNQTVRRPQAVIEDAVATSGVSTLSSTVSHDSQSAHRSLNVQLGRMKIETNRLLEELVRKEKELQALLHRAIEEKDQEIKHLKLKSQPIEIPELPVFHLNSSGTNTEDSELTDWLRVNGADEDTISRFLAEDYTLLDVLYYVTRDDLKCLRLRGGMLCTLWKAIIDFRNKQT

The first test addresses Mitogen-activated protein kinase kinase kinase 5 (Homo sapiens) (UniProt Q99683). In words: ligand-induced stabilization of human MAP3K5 kinase – biophysical, DSF, SYPRO orange, recombinant protein (AID 515). The conditions noted are these: recombinant MAP3K5, DSF thermal shift, at 10 µM, buffer 10 mM HEPES, pH 7.5, NaCl 150 mM, stronger effect = higher value.
For `CC1N=C2SC=CN2C(=O)C1CCN1CCC(=C(c2ccccc2)c2ccc(F)cc2)CC1` (stereo not drawn), the Tm shift was 4.8 Celsius. Same read-out and setting: as for `NC1=N/C(=C2/CCNC(=O)c3[nH]c(Br)cc32)C(=O)N1`, the figure is 8.7 Celsius. On the same count and under the same terms, as for `O=C1Nc2ccccc2/C1=C\c1cnc[nH]1`, the figure is 4.76 Celsius; as for `O=c1[nH]cnc2scc(-c3cccs3)c12`, 3.7 Celsius; as for `O=C(c1ccc(Nc2nccc(-c3cc4ccccc4s3)n2)cc1)N1CCC(N2CCCC2)CC1`, 5.1 Celsius. The same measure, in the same setting: the figure for `Cn1cc(/C=C2\C(=O)Nc3ccc(S(N)(=O)=O)cc32)c2ccccc21` is 10 Celsius; for `COc1cccc(N=Cc2c(O)[nH]c3ccccc23)c1` it is 3.2 Celsius; for `Cc1c2ccncc2c(C)c2c1[nH]c1ccccc12` it is 6.3 Celsius. With `CCOc1c(Br)ccc2c1sc1nc[nH]c(=O)c12`, the Tm shift was 3.9 Celsius. On to `O=c1c(O)c(-c2ccc(O)c(O)c2)oc2cc(O)cc(O)c12`, for which the Tm shift was 3.7 Celsius. The same measure, in the same setting: the figure for `N#Cc1ccc(-c2cnc3ccc(NC4CCOCC4)nn23)cc1` is 3.5 Celsius; for `Nc1nc(Nc2ccc(S(N)(=O)=O)cc2)nn1C(=S)Nc1c(F)cccc1F` it is 16.9 Celsius; for `O=Nc1c(-c2c(O)[nH]c3ccc(I)cc23)[nH]c2ccccc12` it is 5.72 Celsius. As for `O=Nc1c(-c2c(O)[nH]c3ccc(S(O)(O)O)cc23)[nH]c2ccccc12`, the Tm shift was 4.04 Celsius. On the same count and under the same terms, the figure for `O=Nc1c(-c2c(O)[nH]c3ccccc23)[nH]c2ccccc12` is 6.1 Celsius; for `OCC(O)CCO/N=C1/C(c2c(O)[nH]c3ccccc23)=Nc2ccccc21` (stereo not drawn) it is 5.6 Celsius; for `O=C(Nc1ccc(N2CCOCC2)cc1)Nc1ccc(Cl)c(Cl)c1` it is 5.7 Celsius. Same read-out and setting: the figure for `Cc1ccc2c(c1)=C(c1[nH]c(=S)[nH]c1O)C(=O)N=2` is 4.5 Celsius.

The test is the same for the next values; noted with them: recombinant MAP3K5, DSF thermal shift, at 10 µM, buffer 10 mM HEPES, pH 7.5, NaCl 150 mM, with 50 µM L-Arg/L-Glu (1:1), stronger effect = higher value.
For the compound `CC(O)(O)C1(O)C[C@@H]2O[C@@]1(C)n1c3ccccc3c3c4c(c5c6ccccc6n2c5c31)C(=O)NC4` (stereo partly drawn), the Tm shift was 14.1 Celsius. As to `CC1N=C2SC=CN2C(=O)C1CCN1CCC(=C(c2ccccc2)c2ccc(F)cc2)CC1` (stereo not drawn), the Tm shift was 6.07 Celsius. The same measure, in the same setting: the figure for `NC1=N/C(=C2/CCNC(=O)c3[nH]c(Br)cc32)C(=O)N1` is 12.5 Celsius. The same measure, in the same setting: as for `O=Nc1c(-c2c(O)[nH]c3cc(Br)ccc23)[nH]c2ccccc12`, the figure is 8.7 Celsius; as for `Cc1cc(C=C2C(=O)C=CC2=O)cc(C)c1O`, 3.1 Celsius; as for `O=C1c2ccccc2-c2n[nH]c3cccc1c23`, 8.63 Celsius. As for `O=C1NCc2c1c1c3ccccc3[nH]c1c1[nH]c3ccccc3c21`, the Tm shift is 8.53 Celsius. Still for that read-out and setting: as for `CC(C)(C)c1nc2c3cc[nH]c(=O)c3c3cc(F)ccc3c2[nH]1`, the figure is 8.26 Celsius. Still for that read-out and setting: the figure for `NC1=N/C(=C2\CCNC(=O)c3[nH]ccc32)C(=O)N1` is 4.65 Celsius; for `O=c1c(O)c(-c2ccc(O)c(O)c2)oc2cc(O)ccc12` it is 3.96 Celsius. On the same count and under the same terms, the figure for `O=C1NC(=O)c2c1c1c3ccccc3n3c1c1c2c2ccccc2n1[C@@H]1CCC3O1` is 6.97 Celsius. As for `O=C1Nc2ccccc2/C1=C/c1ccc[nH]1`, the Tm shift is 5.01 Celsius. Still for that read-out and setting: the figure for `CCN(CC)CCNC(=O)c1c(C)[nH]c(/C=C2\C(=O)Nc3ccc(Cl)cc32)c1C` is 6.43 Celsius; for `COc1ccc2c(c1)/C(=C/c1cnc[nH]1)C(=O)N2` it is 5.19 Celsius. Same read-out and setting: the figure for `NC(=O)Nc1sc(-c2ccccc2)cc1C(N)=O` is 5.94 Celsius.
